The experiment concerns the target T1, serotonin 5-HT6 receptor subtype (Homo sapiens, UniProt P50406).
T1 construct: host or cells: CHO-Dukx-A2 cells, clone 50-7
As to the kind of experiment: 5-HT6 binding affinity ([3H]-LSD SPA binding). Particulars: read-out: 5-HT6 binding Ki.

T1 sequence (P50406 whole entry): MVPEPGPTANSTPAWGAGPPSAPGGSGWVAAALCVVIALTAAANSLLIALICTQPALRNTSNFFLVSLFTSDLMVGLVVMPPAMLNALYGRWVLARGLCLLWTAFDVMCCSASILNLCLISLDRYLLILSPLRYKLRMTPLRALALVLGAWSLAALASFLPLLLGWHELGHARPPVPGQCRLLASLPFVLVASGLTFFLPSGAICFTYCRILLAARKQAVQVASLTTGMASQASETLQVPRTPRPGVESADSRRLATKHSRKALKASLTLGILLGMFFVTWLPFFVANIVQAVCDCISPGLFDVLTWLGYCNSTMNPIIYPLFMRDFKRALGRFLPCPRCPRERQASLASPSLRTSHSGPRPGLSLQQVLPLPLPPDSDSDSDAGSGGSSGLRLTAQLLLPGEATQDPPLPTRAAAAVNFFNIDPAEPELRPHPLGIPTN

One may read the Ki as the equilibrium dissociation constant of an inhibitor or competing ligand from its target. Take `O=S(=O)(c1cccc(F)c1F)n1cnc2c(N3CCNCC3)cccc21` [Example 83, 1-[(2,3-difluorophenyl)sulfonyl]-4-piperazin-1-yl-1H-benzimidazole]: the Ki is 0.397 nM.

With `O=S(=O)(c1cc(F)ccc1F)n1cnc2c(N3CCNCC3)cccc21` [Example 84, 1-[(2,5-difluorophenyl)sulfonyl]-4-piperazin-1-yl-1H-benzimidazole], the Ki was found to be 0.855 nM.

As for `O=S(=O)(c1c(Cl)cccc1Cl)n1cnc2c(N3CCNCC3)cccc21` [Example 86, 1-[(2,6-dichlorophenyl)sulfonyl]-4-piperazin-1-yl-1H-benzimidazole], the Ki came to 1.33 nM. Next, `Cc1c(F)cccc1S(=O)(=O)n1cnc2c(N3CCNCC3)cccc21` [Example 87, 1-[(3-fluoro-2-methylphenyl)sulfonyl]-4-piperazin-1-yl-1H-benzimidazole]: 0.402 nM; `O=S(=O)(c1cc(F)cc(Cl)c1)n1cnc2c(N3CCNCC3)cccc21` [Example 88, 1-[(3-chloro-5-fluorophenyl)sulfonyl]-4-piperazin-1-yl-1H-benzimidazole]: 0.589 nM. Next, `CCOc1ccccc1S(=O)(=O)n1c(C)nc2c(N3CCNCC3)cccc21` [Example 89, 1-[(2-ethoxyphenyl)sulfonyl]-2-methyl-4-piperazin-1-yl-1H-benzimidazole]: 0.761 nM; `COc1cc(C)c(Cl)cc1S(=O)(=O)n1cnc2c(N3CCNCC3)cccc21` [Example 90, 1-[(5-chloro-2-methoxy-4-methylphenyl)sulfonyl]-4-piperazin-1-yl-1H-benzimidazole]: 12.9 nM; `Cc1nc2c(N3CCNC(C)C3)cccc2n1S(=O)(=O)c1ccccc1` (stereo not drawn) [Example 91, 2-methyl-4-(3-methylpiperazin-1-yl)-1-(phenylsulfonyl)-1H-benzimidazole]: 2.44 nM. Next, `Cc1nc2c(N3CCNC(C)C3)cccc2n1S(=O)(=O)c1cccc2ccccc12` (stereo not drawn) [Example 92, 2-methyl-4-(3-methylpiperazin-1-yl)-1-(naphthalen-1-ylsulfonyl)-1H-benzimidazole]: 0.623 nM. Turning to `Cc1nc2c(N3CCNC(C)C3)cccc2n1S(=O)(=O)c1ccccc1Cl` (stereo not drawn) [Example 93, 1-[(2-chlorophenyl)sulfonyl]-2-methyl-4-(3-methylpiperazin-1-yl)-1H-benzimidazole], the Ki was found to be 0.488 nM. The same measure for `Cc1nc2c(N3CCNC(C)C3)cccc2n1S(=O)(=O)c1cccc(F)c1` (stereo not drawn) [Example 94, 1-[(3-fluorophenyl)sulfonyl]-2-methyl-4-(3-methylpiperazin-1-yl)-1H-benzimidazole]: 1.07 nM; for `Cc1c(Cl)cccc1S(=O)(=O)n1c(C)nc2c(N3CCNC(C)C3)cccc21` (stereo not drawn) [Example 95, 1-[(3-chloro-2-methylphenyl)sulfonyl]-2-methyl-4-(3-methylpiperazin-1-yl)-1H-benzimidazole]: 0.394 nM; for `Cc1nc2c(N3C[C@@H](C)N[C@@H](C)C3)cccc2n1S(=O)(=O)c1ccccc1` [Example 96, 4-[(3R,5S)-3,5-dimethylpiperazin-1-yl]-2-methyl-1-(phenylsulfonyl)-1H-benzimidazole]: 27.2 nM. `Cc1nc2c(N3C[C@@H](C)N[C@@H](C)C3)cccc2n1S(=O)(=O)c1cccc2ccccc12` [Example 97, 4-[(3R,5S)-3,5-dimethylpiperazin-1-yl]-2-methyl-1-(naphthalen-1-ylsulfonyl)-1H-benzimidazole]: the Ki amounted to 3.8 nM.

Take `Cc1nc2c(N3C[C@@H](C)N[C@@H](C)C3)cccc2n1S(=O)(=O)c1ccccc1Cl` [Example 98, 1-[(2-chlorophenyl)sulfonyl]-4-[(3R,5S)-3,5-dimethylpiperazin-1-yl]-2-methyl-1H-benzimidazole]: the Ki turned out to be 3.5 nM. On to `Cc1nc2c(N3C[C@@H](C)N[C@@H](C)C3)cccc2n1S(=O)(=O)c1cccc(F)c1` [Example 99, 4-[(3R,5S)-3,5-dimethylpiperazin-1-yl]-1-[(3-fluorophenyl)sulfonyl]-2-methyl-1H-benzimidazole], for which the Ki amounted to 12.9 nM. Regarding `Cc1c(Cl)cccc1S(=O)(=O)n1c(C)nc2c(N3C[C@@H](C)N[C@@H](C)C3)cccc21` [Example 100, 1-[(3-chloro-2-methylphenyl)sulfonyl]-4-[(3R,5S)-3,5-dimethylpiperazin-1-yl]-2-methyl-1H-benzimidazole], the Ki amounted to 2.28 nM. Next, `O=S(=O)(c1cccc2ccccc12)n1cnc2c(N3CCNCC3)cc(F)cc21` [Example 101, 6-fluoro-1-(naphthalen-1-ylsulfonyl)-4-piperazin-1-yl-1H-benzimidazole]: 1.33 nM.

`O=S(=O)(c1ccccc1Cl)n1cnc2c(N3CCNCC3)cc(F)cc21` [Example 102, 1-[(2-chlorophenyl)sulfonyl]-6-fluoro-4-piperazin-1-yl-1H-benzimidazole]: the Ki was determined as 0.698 nM. The same measure for `O=S(=O)(c1ccccc1)n1cnc2c(N3CCNCC3)cc(F)cc21` [Example 103, 6-fluoro-1-(phenylsulfonyl)-4-piperazin-1-yl-1H-benzimidazole]: 0.738 nM; for `O=S(=O)(c1ccccc1)n1cnc2c(N3C[C@@H]4C[C@H]3CN4)cccc21` [Example 104, 4-[(1S,4S)-2,5-diazabicyclo[2.2.1]hept-2-yl]-1-(phenylsulfonyl)-1H-benzimidazole]: 44.7 nM. Next, `O=S(=O)(c1cccc2ccccc12)n1cnc2c(N3C[C@@H]4C[C@H]3CN4)cccc21` [Example 105, 4-[(1S,4S)-2,5-diazabicyclo[2.2.1]hept-2-yl]-1-(naphthalen-1-ylsulfonyl)-1H-benzimidazole]: 7.55 nM; `O=S(=O)(c1ccccc1Cl)n1cnc2c(N3C[C@@H]4C[C@H]3CN4)cccc21` [Example 106, 1-[(2-chlorophenyl)sulfonyl]-4-[(1S,4S)-2,5-diazabicyclo[2.2.1]hept-2-yl]-1H-benzimidazole]: 5.3 nM; `O=S(=O)(c1cccc(F)c1)n1cnc2c(N3C[C@@H]4C[C@H]3CN4)cccc21` [Example 107, 4-[(1S,4S)-2,5-diazabicyclo[2.2.1]hept-2-yl]-1-[(3-fluorophenyl)sulfonyl]-1H-benzimidazole]: 22.1 nM. The same measure for `Cc1c(Cl)cccc1S(=O)(=O)n1cnc2c(N3C[C@@H]4C[C@H]3CN4)cccc21` [Example 108, 1-[(3-chloro-2-methylphenyl)sulfonyl]-4-[(1S,4S)-2,5-diazabicyclo[2.2.1]hept-2-yl]-1H-benzimidazole]: 2.86 nM; for `Cc1nc2c(N3C[C@@H]4C[C@H]3CN4)cccc2n1S(=O)(=O)c1ccccc1` [Example 109, 4-[(1S,4S)-2,5-diazabicyclo[2.2.1]hept-2-yl]-2-methyl-1-(phenylsulfonyl)-1H-benzimidazole]: 30.5 nM. With `Cc1nc2c(N3C[C@@H]4C[C@H]3CN4)cccc2n1S(=O)(=O)c1cccc2ccccc12` [Example 110, 4-[(1S,4S)-2,5-diazabicyclo[2.2.1]hept-2-yl]-2-methyl-1-(naphthalen-1-ylsulfonyl)-1H-benzimidazole], the Ki was determined as 9.92 nM. Regarding `Cc1nc2c(N3C[C@@H]4C[C@H]3CN4)cccc2n1S(=O)(=O)c1ccccc1Cl` [Example 111, 1-[(2-chlorophenyl)sulfonyl]-4-[(1S,4S)-2,5-diazabicyclo[2.2.1]hept-2-yl]-2-methyl-1H-benzimidazole], the Ki stood at 21 nM. Next, `Cc1nc2c(N3C[C@@H]4C[C@H]3CN4)cccc2n1S(=O)(=O)c1cccc(F)c1` [Example 112, 4-[(1S,4S)-2,5-diazabicyclo[2.2.1]hept-2-yl]-1-[(3-fluorophenyl)sulfonyl]-2-methyl-1H-benzimidazole]: 39.9 nM. Next, `Cc1c(Cl)cccc1S(=O)(=O)n1c(C)nc2c(N3C[C@@H]4C[C@H]3CN4)cccc21` [Example 113, 1-[(3-chloro-2-methylphenyl)sulfonyl]-4-[(1S,4S)-2,5-diazabicyclo[2.2.1]hept-2-yl]-2-methyl-1H-benzimidazole]: 14.1 nM; `CCC1CN(c2cccc3c2ncn3S(=O)(=O)c2cccc3ccccc23)CCN1` (stereo not drawn) [Example 118, 4-(3-ethylpiperazin-1-yl)-1-(1-naphthylsulfonyl)-1H-benzimidazole]: 1.38 nM. As to `CCC1CN(c2cccc3c2ncn3S(=O)(=O)c2ccccc2)CCN1` (stereo not drawn) [Example 119, 4-(3-ethylpiperazin-1-yl)-1-(phenylsulfonyl)-1H-benzimidazole], the Ki was found to be 0.484 nM. The same measure for `CC(C)C1CN(c2cccc3c2ncn3S(=O)(=O)c2ccccc2)CCN1` (stereo not drawn) [Example 120, 4-(3-isopropylpiperazin-1-yl)-1-(phenylsulfonyl)-1H-benzimidazole]: 6.11 nM; for `CC(C)C1CN(c2cccc3c2ncn3S(=O)(=O)c2cccc3ccccc23)CCN1` (stereo not drawn) [Example 121, 4-(3-isopropylpiperazin-1-yl)-1-(1-naphthylsulfonyl)-1H-benzimidazole]: 0.952 nM; for `CC(C)C1CN(c2cccc3c2ncn3S(=O)(=O)c2ccccc2Cl)CCN1` (stereo not drawn) [Example 122, 1-[(2-chlorophenyl)sulfonyl]-4-(3-isopropylpiperazin-1-yl)-1H-benzimidazole]: 1.08 nM. `CC(C)CC1CN(c2cccc3c2ncn3S(=O)(=O)c2ccccc2)CCN1` (stereo not drawn) [Example 123, 4-(3-isobutylpiperazin-1-yl)-1-(phenylsulfonyl)-1H-benzimidazole]: the Ki is 34.3 nM. The same measure for `CC(C)CC1CN(c2cccc3c2ncn3S(=O)(=O)c2cccc3ccccc23)CCN1` (stereo not drawn) [Example 124, 4-(3-isobutylpiperazin-1-yl)-1-(1-naphthylsulfonyl)-1H-benzimidazole]: 8.32 nM; for `CC(C)CC1CN(c2cccc3c2ncn3S(=O)(=O)c2ccccc2Cl)CCN1` (stereo not drawn) [Example 125, 1-[(2-chlorophenyl)sulfonyl]-4-(3-isobutylpiperazin-1-yl)-1H-benzimidazole]: 4.98 nM. The same measure for `Cc1nc2c(N3CCN[C@@H](C)C3)cccc2n1S(=O)(=O)c1cccc2c(Cl)cccc12` [Example 126, 1-[(5-chloro-1-naphthyl)sulfonyl]-2-methyl-4-[(3S)-3-methylpiperazin-1-yl]-1H-benzimidazole]: 1.05 nM.

The record behind these values is US8063053B2, “1-(arylsulfonyl)-4-(piperazin-1-yl)-1H-benzimidazoles as 5-hydroxytryptamine-6 ligands” (Wyeth LLC, priority 2008, dated 2011).
